Source: patent US20240139149A1, “THERAPEUTIC USES OF UROLITHIN DERIVATIVES” (Vandria SA, priority 2022, published 2024)
“Also recorded” adds a separate entry of the source.

Columns and labels:
[1] = tested on: aged mice injected with Aβ1-42; test: Mouse model of Alzheimer's disease, intrahippocampal injection of Aβ1-42 oligomers; format: in vivo
Description: A total of 18-month-old C57BL6 male mice were included in the study (n=12 per group). The animals were housed up to 4 to a cage, in clear polycarbonate cages with a stainless steel mesh lid and floor in a day/night inversed cycle (12 h/12 h). Drinking water and food were supplied ad libitum to each cage. The animals were kept for a period of acclimation of a minimum of 5 days before any handling.
All mice were subjected to surgery and were injected with 2 μL of vehicle or of A 1-42 solution. Aβ1-42 peptide (Bachem) was dissolved in the vehicle, at an initial concentration of 100 μM (the mother preparation was characterized by automatic WB, and precisely contained 15% of AβO). This solution was gently agitated for 3 days at 37° C. in the dark before any use until the day of the surgery.
The Aβ1-42 preparation was bilaterally injected into the […] of the CA1 area of the hippocampus (at three different depths). A total of 2 μL/side of A 1-42 preparation (100 μM), or vehicle, were bilaterally injected with a Hamilton syringe in the CA1 area of the hippocampus (0.2 μL/min with an Elite Nanomite syringe pump).
Vehicle (0.5% carboxy methyl cellulose (CMC)) or 33 at 1 mg/kg/d was administrated daily by gavage (per os: p.o). The treatment started 1 day after the surgery (D+1) and lasted until the end of the study (D+27). The study was stopped 4 weeks after the surgery (on D28).
The week before the surgery, a training session was performed, for habituation (5 minutes) to the maze. Fourteen (14) days after the surgery, mice were tested for short-term memory deficit in the Y-maze test.
The test was based on two trials: • Trial 1. Mice were allowed to freely explore two arms of the Y-maze during 5 min. The third arm remained closed during the trial. At the end of the 5 min, the animal was placed for 3 min in an empty cage. The Y-maze was cleaned with acetic acid to neutralize odors. • Trial 2. Mice were then allowed to freely explore the three arms of the Y-maze during 5 min. This trial corresponds to the test session.
Both trials were recorded by a video camera using Ethovision system (Noldus). The following items were automatically recorded: a) total distance in the Y-maze and b) the time spent in each arm.
At the end of the experiment (on day 28), 5 mice per group were deeply anesthetized and plasma samples were collected. Mice were then perfused with cold PBS (3 minutes), and cold paraformaldehyde (PFA) 4% in PBS (for 3 minutes).
Six (n=6) brain sections per animal were processed and incubated for 24 hours at 4° C. or 2 hours at room temperature with selected antibodies (Abs). The following antibodies were used: • NeuN: Rabbit polyclonal antibody anti-NeuN (1/1000). • Iba1: Rabbit polyclonal antibody anti-Iba1 (1/500). • Tau phospho Ser212/Thr214 (AT100): Mouse monoclonal antibody anti-AT100 (1/200).
Images were acquired with a confocal microscope LSM 900 with Zen software at 20× magnification (Zeiss) using the same acquisition parameters (automatic acquisition). […] The following read-outs were measured: • Number of NeuN positive pyramidal cells in the CA1 area. • Activation of Iba1-positive microglial cells in the CA1 area. • Activation of AT100 positive neurons in the CA1 area.
Results were analyzed using GraphPad Prism software version 8.0.2. *p<0.05 after a One-way or Two-way ANOVA followed by Fisher's test was considered significant.

mouse T lymphocytes = test: Mitochondrial content (Mitotracker positive cells) in mouse T lymphocytes; format: cell-based; conditions: 2 μM, 72 h
Description: Splenic murine T cells were isolated from mice aged 6-20 weeks by negative selection with EasySep mouse T cell isolation kit (Stem cell) according to the manufacturer's instructions. T cell activation was initiated using CD3/CD28 activation beads (11456D; ThermoFisher Scientific) at a ratio of 25 μl dynabeads per 0.5×10^6 T-cells. Cells were activated with test compounds at 2 μM or DMSO in T cell activation Medium (RPMI (ThermoFisher Scientific) 10% FBS (South America origin), 10 mM Hepes (Sigma), 1× Non-Essential Amino Acid, 1 mM Sodium Pyruvate, 50 μM β-Mercaptoethanol, 100 U/ml penicillin, 100 μg/ml streptomycin and 2 mM Glutamax (ThermoFisher Scientific) for 72 h. For subsequent analysis, activating beads were magnetically removed prior staining.
For flow cytometric analysis of mitochondria 500 μl of Mitotracker Red (200 nM; ThermoFisher) was applied followed by surface staining.
Cell doublets and cells debris were excluded from the analysis by gating FSC-A vs FSC-H followed by SSC-A vs SSC-H dot plots and FSC-A vs SSC-A dot plots, respectively. eFluor 780 highly positive cells, i.e, dead cells, were gated out of the analysis. Data was acquired on Canto II (BD), Fortessa (BD) and Aurora (Cytek) cytometers and analyzed with FlowJo.

O=c1oc2cc(O)ccc2c2ccc(OC3CCOCC3)cc12 [compound 33, 3-hydroxy-8-((tetrahydro-2H-pyran-4-yl)oxy)-6H-benzo[c]chromen-6-one]
short-term spatial memory (time in new arm, Y-maze) ([1]; 1 mg/kg daily oral, 14 days post-surgery): able to prevent; also recorded: beneficial effects
AT100 (hyperphosphorylated Tau) in neurons ([1]; 1 mg/kg daily, day 1 to day 28): decrease
activation of Iba1(+) microglial cells ([1]; 1 mg/kg daily, day 1 to day 28): significantly decrease
survival of NeuN(+) neurons in CA1 ([1]; 1 mg/kg daily, day 1 to day 28): significantly improved
total distance traveled in Y-maze ([1]; 1 mg/kg/d p.o., 14 days post-surgery): not different between groups
increase in the percentage of Mitotracker positive cells vs DMSO (mouse T lymphocytes): 19%
percentage of Mitotracker positive cells (mouse T lymphocytes; DMSO 44%): 52.5%
